ChEMBL document CHEMBL4007510, “N6-Substituted 5'-N-Methylcarbamoyl-4'-selenoadenosines as Potent and Selective A3 Adenosine Receptor Agonists with Unusual Sugar Puckering and Nucleobase Orientation” (J Med Chem, 2017)
Calls of active or inactive are those of the source. The calls are words filed in the database; no cut-off is given here.

Columns and labels:
[1] = target: T1, Adenosine receptor A1 (Homo sapiens, UniProt P30542); assay: Displacement of […] from human adenosine A1 receptor expressed in CHO cells after 60 mins by liquid scintillation analyzer; type: cell-based
T1 sequence (P30542 whole entry): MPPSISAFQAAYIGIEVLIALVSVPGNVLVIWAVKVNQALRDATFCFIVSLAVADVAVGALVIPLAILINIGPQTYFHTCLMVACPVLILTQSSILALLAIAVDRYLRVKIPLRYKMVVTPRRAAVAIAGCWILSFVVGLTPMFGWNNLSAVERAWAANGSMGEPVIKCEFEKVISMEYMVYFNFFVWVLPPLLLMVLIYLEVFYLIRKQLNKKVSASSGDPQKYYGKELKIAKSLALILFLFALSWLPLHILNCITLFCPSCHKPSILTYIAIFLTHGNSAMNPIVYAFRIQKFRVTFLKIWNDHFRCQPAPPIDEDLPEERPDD

[2] = target: T2, Adenosine receptor A2a (Homo sapiens, UniProt P29274); assay: Displacement of [3H]CGS21680 from human adenosine A2A receptor expressed in HEK293 cells after 60 mins by liquid scintillation analyzer; type: cell-based
[3] = target: T3, Adenosine receptor A3 (Homo sapiens, UniProt P0DMS8); assay: Displacement of [125I]I-AB-MECA from human adenosine A3 receptor expressed in CHO cells after 60 mins by gamma counting analysis; type: cell-based
T3 sequence (P0DMS8 whole entry): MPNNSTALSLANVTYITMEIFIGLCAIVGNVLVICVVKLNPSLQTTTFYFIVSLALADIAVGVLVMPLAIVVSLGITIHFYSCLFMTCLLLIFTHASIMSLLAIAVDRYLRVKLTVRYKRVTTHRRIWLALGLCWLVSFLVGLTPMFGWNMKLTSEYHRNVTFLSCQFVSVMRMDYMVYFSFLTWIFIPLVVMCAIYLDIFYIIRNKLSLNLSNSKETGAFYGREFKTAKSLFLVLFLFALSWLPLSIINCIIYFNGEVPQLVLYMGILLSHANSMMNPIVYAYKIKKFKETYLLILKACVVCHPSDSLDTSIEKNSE

[4] = target: T4, Adenosine receptor A3 (Homo sapiens) (UniProt P0DMS8); assay: Agonist activity at human adenosine A3 receptor expressed in CHO cells assessed as decrease in forskolin induced cAMP formation preincubated for 10 mins followed by forskolin challenge measured after 15 mins by AlphaScreen assay relative to adenosine-5'-N- ethyluronamide; type: functional, cell-based; parameters: concentration or dose not given beside the values
T4 sequence (whole entry): T3 sequence (P0DMS8 whole entry)

[5] = system: Microglia; assay: Antimigratory activity in Sprague-Dawley rat microglial cells assessed as inhibition of MCP-1 mediated cell migration at 100 nM after 20 mins by inverted confocal microscopy; type: functional, cell-based
[6] = Cytotoxicity against Sprague-Dawley rat microglial cells assessed as effect on cell viability up to 50 uM after 24 hrs by presto blue assay; type: cell-based; settings: microglia
[7] = target: T2, Adenosine receptor A2a; assay: Displacement of [3H]CGS21680 from human adenosine A2 receptor expressed in HEK293 cells at 10 uM after 60 mins by liquid scintillation analyzer relative to control; type: cell-based
[8] = target: T3, Adenosine receptor A3; assay: Agonist activity at human adenosine A3 receptor expressed in CHO cells assessed as decrease in forskolin induced cAMP formation preincubated for 10 mins followed by forskolin challenge measured after 15 mins by AlphaScreen assay; type: functional, cell-based
[9] = Cytotoxicity against human MRC9 up to 20 uM; type: cell-based
[10] = target: T5, Adenosine receptor A1 (Homo sapiens) (UniProt P30542); assay: Displacement of […] from human adenosine A1 receptor expressed in CHO cells at 10 uM after 60 mins by liquid scintillation analyzer relative to control; type: cell-based
T5 sequence (whole entry): T1 sequence (P30542 whole entry)

T2 sequence (P29274 whole entry): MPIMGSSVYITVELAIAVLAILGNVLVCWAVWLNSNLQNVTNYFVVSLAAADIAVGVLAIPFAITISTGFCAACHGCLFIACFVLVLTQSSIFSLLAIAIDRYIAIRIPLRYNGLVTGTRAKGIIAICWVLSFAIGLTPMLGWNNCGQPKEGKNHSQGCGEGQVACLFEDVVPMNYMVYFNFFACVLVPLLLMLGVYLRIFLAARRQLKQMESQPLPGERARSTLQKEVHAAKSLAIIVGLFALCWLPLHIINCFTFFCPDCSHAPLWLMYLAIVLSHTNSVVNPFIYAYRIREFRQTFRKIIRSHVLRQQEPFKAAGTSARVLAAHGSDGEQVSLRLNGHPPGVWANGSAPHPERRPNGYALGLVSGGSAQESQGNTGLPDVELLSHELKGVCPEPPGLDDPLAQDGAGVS

| SMILES | Ki [1] [nM] | Ki [2] [nM] | Ki [3] [nM] | Activity [4] [%] | inhibition [5] | Activity [6] | inhibition [7] [%] | EC50 [8] [nM] | Activity [9] | inhibition [10] [%] |
| --- | --- | --- | --- | --- | --- | --- | --- | --- | --- | --- |
| CNC(=O)[C@H]1[Se][C@@H](n2cnc3c(NC4CCCC4)ncnc32)[C@H](O)[C@@H]1O | 25.2 | 1090 | 7.07 | 77 |  |  |  |  |  |  |
| CNC(=O)[C@H]1[Se][C@@H](n2cnc3c(NC4CCC4)ncnc32)[C@H](O)[C@@H]1O | 37.5 | 1080 | 1.39 | 82 |  |  |  |  |  |  |
| CNC(=O)[C@H]1[Se][C@@H](n2cnc3c(NCc4ccccc4OC)ncnc32)[C@H](O)[C@@H]1O | 1880 | 1260 | 3.75 | 97 |  |  |  |  |  |  |
| CNC(=O)[C@H]1[Se][C@@H](n2cnc3c(NCc4cccc(I)c4)nc(Cl)nc32)[C@H](O)[C@@H]1O | 311 | 1200 | 4.2 | 94.1 |  |  |  |  |  |  |
| CNC(=O)[C@H]1[Se][C@@H](n2cnc3c(N[C@@H]4C[C@H]4c4ccccc4)ncnc32)[C@H](O)[C@@H]1O | 420 | 2480 | 3.93 | 89 |  |  |  |  |  |  |
| CNC(=O)[C@H]1[Se][C@@H](n2cnc3c(NCc4ccc5ccccc5c4)ncnc32)[C@H](O)[C@@H]1O | 440 | 195 | 1.76 | 109 |  |  |  |  |  |  |
| CNC(=O)[C@H]1[Se][C@@H](n2cnc3c(NC4CCCC4)nc(Cl)nc32)[C@H](O)[C@@H]1O | 59.4 | 1120 | 3.56 | 92.5 |  |  |  |  |  |  |
| CNC(=O)[C@H]1S[C@@H](n2cnc3c(NCc4cccc(I)c4)nc(Cl)nc32)[C@H](O)[C@@H]1O |  |  |  |  | Active | Non-Toxic |  |  |  |  |
| CNC(=O)[C@H]1[Se][C@@H](n2cnc3c(NC)ncnc32)[C@H](O)[C@@H]1O | 2060 |  | 1.49 | 108 |  |  | 18 |  |  |  |
| CNC(=O)[C@H]1[Se][C@@H](n2cnc3c(NCc4ccccc4Cl)ncnc32)[C@H](O)[C@@H]1O | 1090 | 1160 | 4.41 | 85 |  |  |  |  |  |  |
| CNC(=O)[C@H]1[Se][C@@H](n2cnc3c(NCc4cccc(I)c4)ncnc32)[C@H](O)[C@@H]1O | 480 | 1080 | 0.57 | 91 | Active | Non-Toxic |  | 2.7 | Non-Toxic |  |
| CNC(=O)[C@H]1[Se][C@@H](n2cnc3c(NCc4cccc(Cl)c4)ncnc32)[C@H](O)[C@@H]1O | 570 | 555 | 3.45 | 80 |  |  |  |  | Non-Toxic |  |
| CNC(=O)[C@H]1[Se][C@@H](n2cnc3c(NC4CC4)nc(Cl)nc32)[C@H](O)[C@@H]1O | 186 |  | 1.9 | 83.6 |  |  | 30.3 |  |  |  |
| CNC(=O)[C@H]1[Se][C@@H](n2cnc3c(NC4CCC4)nc(Cl)nc32)[C@H](O)[C@@H]1O | 61.7 | 899 | 1 | 86.7 |  |  |  |  |  |  |
| CNC(=O)[C@H]1[Se][C@@H](n2cnc3c(NCc4cccc(Cl)c4)nc(Cl)nc32)[C@H](O)[C@@H]1O | 232 | 238 | 1.96 | 99.7 |  |  |  |  |  |  |
| CNC(=O)[C@H]1[Se][C@@H](n2cnc3c(NCc4cccc(Br)c4)ncnc32)[C@H](O)[C@@H]1O | 220 | 560 | 0.9 | 91 |  |  |  |  | Non-Toxic |  |
| CNC(=O)[C@H]1[Se][C@@H](n2cnc3c(NCc4cccc(F)c4)nc(Cl)nc32)[C@H](O)[C@@H]1O |  |  | 3.35 | 106 |  |  | 42 |  |  | 37.3 |
| CNC(=O)[C@H]1S[C@@H](n2cnc3c(NCc4cccc(I)c4)ncnc32)[C@H](O)[C@@H]1O |  |  |  | 100 |  |  |  |  |  |  |
| CNC(=O)[C@H]1[Se][C@@H](n2cnc3c(NCc4cccc(Br)c4)nc(Cl)nc32)[C@H](O)[C@@H]1O | 156 | 1230 | 1.99 | 106 |  |  |  |  |  |  |
| CNC(=O)[C@H]1[Se][C@@H](n2cnc3c(NC4CC4)ncnc32)[C@H](O)[C@@H]1O | 83.5 |  | 2.49 | 92 |  |  | 54 |  |  |  |
| CNC(=O)[C@H]1[Se][C@@H](n2cnc3nc(Cl)nc(NCc4cccc(I)c4)c32)[C@H](O)[C@@H]1O |  |  | 7360 | 14 |  |  | 23 |  |  | 7 |
| CNC(=O)[C@H]1[Se][C@@H](n2cnc3c(NCc4cccc(F)c4)ncnc32)[C@H](O)[C@@H]1O | 3310 | 1350 | 2.3 | 74 |  |  |  |  | Non-Toxic |  |
| CNC(=O)[C@H]1[Se][C@@H](n2cnc3ncnc(NCc4cccc(I)c4)c32)[C@H](O)[C@@H]1O |  |  | 4180 | 0.2 |  |  | 13 |  |  | 26 |
